A word on the inhibition: it is the drop in the measured response relative to a control, in per cent. In general, IC50 refers to the concentration that inhibits the measured activity by half. Low values mean greater potency, high ones weaker potency.

Read-outs that look alike come from different tables or passages of the source.

The record followed here is patent US20090264384A1, “INDOLE, BENZIMIDAZOLE, AND BENZOLACTAM BORONIC ACID COMPOUNDS, ANALOGS THEREOF AND METHODS OF USE THEREOF” (Nuada, Inc., priority 2004, published 2009).

A short description of the series: Various In Vitro Cell Biology Assays (Example 41, Tables 23-26). Format: cell-based. The note with it: for % Inhibition of Control Values / inhibition at 3 µM / cytotoxicity at 24 h: 3×10^−6 M; for inhibition at 3 µM: PBMC, read-out: % Inhibition of Control Values; for cytotoxicity at 24 h: human, Cell viability (h) (PBMC/24 h), MTT; for IC50: TNF-α secretion (h) (PBMC). Here is the method:
In each experiment, the respective reference compound was tested concurrently with the test compounds in order to assess the assay suitability. It was tested at several concentrations (for IC50 value determination).
The test compounds were assayed at 3×10^−6 M.
Results. The results are expressed as a percent of control values and as a percent inhibition of control values obtained in the presence of the test compounds.
The IC50 values (concentration causing a half-maximal inhibition of control values) and Hill coefficients (nH) were determined by non-linear regression analysis of the inhibition curves using Hill equation curve fitting, a summary of the data is shown in Table 26. The IC50 value for each reference compound is indicated was determined (data not shown) and was within accepted limits of the historic average ±0.5 log units.

Where [1] appears, read: IL-6 secretion (h) (PBMC), LPS 1 μg/ml, 24 h.
[2] abbreviates: 24 h, IL-8 secretion (h) (PBMC), LPS 1 μg/ml, 24 h.
Where [3] appears, read: 48 h, IL-10 secretion (h) (PBMC), PHA 3 μg/ml, 48 h.
[4] abbreviates: 48 h, IL-2 secretion (h) (PBMC), PHA 20 μg/ml, 48 h.
[5] abbreviates: 48 h, IL-4 secretion (h) (PBMC), ConA 20 μg/ml, 48 h.
Setting [6] is: 24 h, IFN-γ secretion (h) (PBMC), PHA 2 μg/ml, 24 h.
[7] abbreviates: 24 h, IL-1 □ secretion (h) (PBMC), LPS 1 μg/ml, 24 h.
Where [8] appears, read: 24 h, IL-6 secretion (h) (PBMC), LPS 1 μg/ml, 24 h.

Regarding `OB(O)CCCCCn1c(-c2cscn2)nc2ccccc21` [CCI-7034], the cytotoxicity at 24 h is -9%. In addition, the “% Inhibition of Control Values” under setting [1] is on record as −89%. Moreover, the inhibition at 3 µM under setting [2] is -32%. The inhibition at 3 µM under setting [3] amounted to 42%.

As to `N#Cc1ncnc2c1ncn2CCCCCB(O)O` [CCI-7048], the inhibition at 3 µM is 23% under setting [4] and -45% under setting [5].

For the compound `OB(O)CCCCCn1c(-c2cscn2)nc2ccccc21` [drawing 69], the inhibition at 3 µM under setting [6] stood at 21%.

`N#Cc1ccc2c(ccn2CCCCCB(O)O)c1` [drawing 70]: the inhibition at 3 µM under setting [6] came to 16%.

For the compound `OB(O)CCCCn1c(C(F)(F)F)nc2ccccc21` [drawing 71], under setting [6], the inhibition at 3 µM was -6%.

On to `C[C@@H]1CC2C3CCC4=CC(=O)C=CC4(C)C3(F)[C@@H](O)CC2(C)C1(O)C(=O)CO` (some centres unmarked) [drawing 72], for which, under setting [6], the inhibition at 3 µM was 68%.

Consider `Nc1nc(Cl)c2ncn(CCCCCB(O)O)c2n1` [drawing 73], for which the inhibition at 3 µM under setting [6] turned out to be 56%.

For `N#Cc1ncnc2c1ncn2CCCCCB(O)O` [drawing 74], the inhibition at 3 µM under setting [6] came out at 14%.

For `OB(O)CCCCCn1c(-c2cscn2)nc2ccccc21` [drawing 75], the inhibition at 3 µM under setting [7] is -67%.

In the case of `C[C@@H]1CC2C3CCC4=CC(=O)C=CC4(C)C3(F)[C@@H](O)CC2(C)C1(O)C(=O)CO` (some centres unmarked) [drawing 78], the inhibition at 3 µM under setting [7] is -12%.

Take `N#Cc1ncnc2c1ncn2CCCCCB(O)O` [drawing 79]: the inhibition at 3 µM under setting [7] is -66%.

For `OB(O)CCCCCn1c(-c2cscn2)nc2ccccc21` [drawing 81], the inhibition at 3 µM under setting [4] came out at 56%.

Regarding `OB(O)CCCCn1c(C(F)(F)F)nc2ccccc21` [drawing 82], the inhibition at 3 µM under setting [4] was 72%.

For `C[C@@H]1CC2C3CCC4=CC(=O)C=CC4(C)C3(F)[C@@H](O)CC2(C)C1(O)C(=O)CO` (some centres unmarked) [drawing 83], under setting [4], the inhibition at 3 µM worked out at 18%.

As to `Nc1nc(Cl)c2ncn(CCCCCB(O)O)c2n1` [drawing 84], the inhibition at 3 µM under setting [4] is 78%.

Take `C[C@@H]1CC2C3CCC4=CC(=O)C=CC4(C)C3(F)[C@@H](O)CC2(C)C1(O)C(=O)CO` (some centres unmarked) [drawing 88]: under setting [5], the inhibition at 3 µM was found to be 118%.

With `Nc1nc(Cl)c2ncn(CCCCCB(O)O)c2n1` [drawing 89], under setting [5], the inhibition at 3 µM was -30%.

On to `OB(O)CCCCCn1c(-c2cscn2)nc2ccccc21` [drawing 90], for which the “% Inhibition of Control Values” under setting [1] is listed as −61%.

Turning to `OB(O)CCCCn1c(C(F)(F)F)nc2ccccc21` [drawing 91], the inhibition at 3 µM under setting [8] was -26%.

Take `C[C@@H]1CC2C3CCC4=CC(=O)C=CC4(C)C3(F)[C@@H](O)CC2(C)C1(O)C(=O)CO` (some centres unmarked) [drawing 92]: the “% Inhibition of Control Values” under setting [1] amounted to 57%.

In the case of `C[C@@H]1CC2C3CCC4=CC(=O)C=CC4(C)C3(F)[C@@H](O)CC2(C)C1(O)C(=O)CO` (some centres unmarked) [drawing 93], under setting [1], the “% Inhibition of Control Values” is on record as −70%.

Consider `N#Cc1ncnc2c1ncn2CCCCCB(O)O` [drawing 94], for which, under setting [8], the inhibition at 3 µM is -30%.

Turning to `N#Cc1ccc2c(ccn2CCCCCB(O)O)c1` [drawing 95], the inhibition at 3 µM under setting [3] was found to be 36%.

As to `OB(O)CCCCn1c(C(F)(F)F)nc2ccccc21` [drawing 96], the inhibition at 3 µM under setting [3] turned out to be 17%.

With `C[C@@H]1CC2C3CCC4=CC(=O)C=CC4(C)C3(F)[C@@H](O)CC2(C)C1(O)C(=O)CO` (some centres unmarked) [drawing 97], the inhibition at 3 µM under setting [3] came out at 62%.

Consider `N#Cc1ncnc2c1ncn2CCCCCB(O)O` [drawing 99], for which the inhibition at 3 µM under setting [3] came out at 13%.

`N#Cc1ccc2c(ccn2CCCCCB(O)O)c1` [drawing 100]: the inhibition at 3 µM under setting [2] was -63%.

As for `OB(O)CCCCn1c(C(F)(F)F)nc2ccccc21` [drawing 101], the inhibition at 3 µM under setting [2] was -29%.

As to `C[C@@H]1CC2C3CCC4=CC(=O)C=CC4(C)C3(F)[C@@H](O)CC2(C)C1(O)C(=O)CO` (some centres unmarked) [drawing 102], under setting [2], the inhibition at 3 µM was found to be 67%.

`Nc1nc(Cl)c2ncn(CCCCCB(O)O)c2n1` [drawing 103]: under setting [2], the inhibition at 3 µM worked out at 8%.

On to `N#Cc1ncnc2c1ncn2CCCCCB(O)O` [drawing 104], for which the inhibition at 3 µM under setting [2] was -33%.

Consider `N#Cc1ccc2c(ccn2CCCCCB(O)O)c1` [drawing 105], for which the cytotoxicity at 24 h amounted to 0%.

Regarding `OB(O)CCCCn1c(C(F)(F)F)nc2ccccc21` [drawing 106], the cytotoxicity at 24 h was -6%.

With `C[C@@H]1CC2C3CCC4=CC(=O)C=CC4(C)C3(F)[C@@H](O)CC2(C)C1(O)C(=O)CO` (some centres unmarked) [drawing 107], the cytotoxicity at 24 h worked out at 6%.

As to `Nc1nc(Cl)c2ncn(CCCCCB(O)O)c2n1` [drawing 108], the cytotoxicity at 24 h stood at 6%.

With `N#Cc1ncnc2c1ncn2CCCCCB(O)O` [drawing 109], the cytotoxicity at 24 h was found to be 5%.

`COc1ccc(-c2nc3ccccc3n2CCCCCB(O)O)cc1` [drawing 110] had an IC50 (LPS 1 μg/ml, 24 h) of 200 nM. In other words, the sub-micromolar range.

As for `OB(O)CCCCCn1c(-c2cscn2)nc2ccccc21` [drawing 111], the IC50 (LPS 1 μg/ml, 24 h) was over 3000 nM.

With `N#Cc1ccc2c(ccn2CCCCCB(O)O)c1` [drawing 112], the IC50 (LPS 1 μg/ml, 24 h) was 1500 nM.

`C[C@@H]1CC2C3CCC4=CC(=O)C=CC4(C)C3(F)[C@@H](O)CC2(C)C1(O)C(=O)CO` (some centres unmarked) [drawing 114] registered an IC50 (LPS 1 μg/ml, 24 h) of 36 nM.
